From patent publication US7205383B2, “Peptide ligands of leukocyte integrins” (Karyon-CTT Ltd., priority 2001, dated 2007)
Ends that are not written are not given here.

Tests used:
αMβ2 integrin = target: T1, αMβ2 integrin (Homo sapiens, UniProt P11215); test: Integrin binding assay, immunocaptured integrin (MEM170 or OKM1); details: for binding of GST protein to immunocaptured αMβ2 integrin: 10 μg/ml, 1 mM MnCl2, integrin captured with MEM170 or OKM1, anti-GST detection
T1 construct: integrin from a blood cell lysate was immunocaptured on microtiter wells; from tissue; host or cells: blood buffy coat lysate in octylglucoside
Experimental: Purified LLG-C4-GST or GST control (2 μg/well) was allowed to bind for 60 min in the absence or presence of EDTA. After washing, the bound GST protein was determined by using anti-GST antibodies. […] The experiment was repeated three times with similar results.
(§1) Integrin was immunocaptured on microtiter wells that were coated with the αM subunit antibodies OKM1 or MEM170, the αx subunit antibody TS2/4 or non-specific IgG (Dako, Carpinteria, Calif.). The antibodies were coated at a concentration of 10 μg/ml in TBS overnight at 4° C. After saturation of the wells with 5% BSA, a 200 μl aliquot of the buffy coat lysate in 1% octylglucoside/1 mM MnCl2/TBS was allowed to incubate for 2 h at 4° C. The wells were then washed five times with the octylglucoside-containing buffer. LLG-C4-GST or control GST was incubated at a concentration of 10 μg/ml in 25 mM octylglucoside TBS/1 mM MnCl2 for an hour. Following washing of the wells, the bound GST was determined with anti-GST antibodies (Amersham Pharmacia), which were labeled with an Eu^3+-chelate according to the instructions of the manufacturer (Wallac, Turku, Finland). The Eu^3+-fluorescence was measured with a 1230 Arcus fluorometer (Wallac). For examination of the I-domain binding, we used the recombinant αM I-domain expressed as a GST fusion protein in E. coli as described (Ueda et al., 1994). […] The I-domain was coated on microtiter wells at a concentration of 20 μg/ml, and the binding of LLG-C4-GST and GST was studied.

αM subunit I-domain = target: T2, αM subunit I-domain (Homo sapiens, UniProt P11215); test: I-domain binding assay; details: for inhibition of LLG-C4-GST binding to the I-domain: LLG-C4-GST 10 μg/ml, peptides 100 μM, EDTA 2.5 mM; for binding to isolated I-domain of the αM subunit: 0.01–100 μg/ml, 60 min
T2 construct: GST (cleaved yes); made in house; host or cells: E. coli
Experimental: In FIG. 1(B), LLG-C4-GST or GST was incubated for 60 min in microtiter wells coated with purified αM subunit I-domain. The concentrations of GST proteins were as indicated. After washing, the bound GST was determined with anti-GST antibodies. The results are means ±SD from triplicate wells. The results were similar in two other experiments.
After a 60 min incubation, the wells were washed and the binding was determined with anti-GST antibodies. The results are the means ±SD from triplicate wells.
as §1

[1] = system: THP-1 cells (β2 integrins); details: for competition of THP-1 cell adhesion on LLG-C4-GST substratum: soluble pentapeptides, CLLGC at concentrations of 1 mM or higher
Experimental: In FIG. 2(A), phorbol ester-activated THP-1 cells were allowed to bind for 60 min to microtiter wells coated with LLG-C4-GST, GST, or albumin. EDTA was included at a 2.5 mM concentration. The bound cells were determined by the assay measuring cellular phosphatase activity. The data are the means ±SD from triplicate wells.
In FIG. 2(B), THP-1 cells were mixed with each antibody against the β1, β2, β3, αL, αM, or αX integrin subunit as indicated at a concentration of […]. An aliquot of cells was then transferred to wells coated with LLG-C4-GST and incubated for 60 min at 37° C. Following washing the bound cells were determined by the phosphatase assay. The results are the mean % adhesion ±SD of 2–4 independent experiments each done in triplicate wells.
In FIG. 3(A), TBP-1 cells were mixed in suspension with the peptide containing either the C(1–8;3–9) or C(1–9;3–8) disulfide. The final concentrations of the peptides are indicated. Cells were then incubated for 60 min at 37° C. in microtiter wells coated with LLG-C4-GST. After washing the wells, the bound cells were quantitated by the phosphatase assay. The results are the mean ±SD from triplicate wells.
In FIG. 3(B), THP-1 cell binding to LLG-C4-GST was examined in the presence of the C(1–8;3–9), CLLGC (SEQ ID NO: 4) or the CAAGC (SEQ ID NO: 5) peptide. The synthetic peptides were used at the concentrations indicated. Following a 60 min incubation the wells were washed and the bound cells were determined by the phosphatase assay.
(§2) Fibrinogen, fibronectin, von Wrlnebrand factor, type IV collagen, GST fusion proteins, Fc fusion proteins or synthetic peptides were coated on microtiter wells at a concentration of 2 μg in 50 μl TBS unless otherwise indicated. A recombinant von Willebrand factor and a capturing antibody to it kindly provided by Drs. J. J. Sixma and Ph. G. de Groot (University Medical Center Utrecht, the Netherlands) were also used. To prepare polymerized peptides, glutaraldehyde was added at a final concentration of 0.25%. The wells were saturated with 5% BSA and then washed five times with PBS. Prior to adhesion assays, cells were treated with 50 nM 40-Phorbol 12,13-dibutyrate or with 200 μM P1 peptide (Kotovuori et al., 1999) in serum-free medium for 30 min at room temperature to activate the integrins. Alternatively, cells were stimulated for 60 min at 37° C. with the phorbol ester (50 nM) and the C(1–8;3–9) and RGD-4C peptides each at a 2.5 μM concentration, after which the peptides were removed by washing with PBS/2.5 mM EDTA. Cells were incubated in the microtiter wells (100 000 cells per well) for 60 min at 37° C. in the absence or presence of competing peptides, antibodies or EDTA. Unbound cells were removed by gently washing with PBS and pressing the plate against paper towels. The bound cells were determined by an assay measuring cellular phosphatase activity. Briefly, 100 μl of 50 mM sodium acetate buffer, pH 5.0, containing 1% Triton X-100 and 6 mg/ml p-nitrophenyl phosphate was added per well and incubated for 1 h at 37° C. The reaction was stopped with 50 μl of 1 M NaOH. The absorbance at 405 nm was read on a microplate reader. Alternatively, the attached cells were stained with Crystal Violet essentially as described (Mould et al., 1995).

[2] = system: αXβ2 integrin-transfected L cells; test: Adhesion of αXβ2 integrin-transfected L cells to LLG-C4-GST; format: cell-based, mouse
Experimental: as §2, with “Unbound cells were removed by gently washing with PBS and pressing the plate against paper towels.” left out, “Briefly, 100 μl of 50 mM sodium acetate buffer, pH 5.0, containing 1% Triton X-100 and 6 mg/ml p-nitrophenyl phosphate was added per well and incubated for 1 h at 37° C. The reaction was stopped with 50 μl of 1 M NaOH.” left out, “Alternatively, the attached cells were stained with Crystal Violet essentially as described (Mould et al., 1995).” left out

[3] = system: THP-1 cells on von Willebrand factor; format: cell-based; details: 500 μM; data not shown
Experimental: In FIG. 5(A), THP-1 cell binding to von Wirebrand factor was examined in the presence of antibodies against the β2 (7E4), αvβ3 (LM609) or αIIbβ3 (P2) integrins. Following a 60 min incubation in von Willebrand factor-coated wells, the bound cells were determined. The data are the mean ±SD of triplicate wells. The experiment was repeated three times.
In FIG. 5(B), TRP-1 cells were allowed to bind to microtiter wells coated with von Willebrand factor, type IV collagen, or fibronectin. The C(1–8;3–9) peptide was included as a competitor in the concentrations described. The bound cells were determined by the phosphatase assay. The data are the mean ±SD of triplicate wells and were similar in four other experiments.
as §2, with “Unbound cells were removed by gently washing with PBS and pressing the plate against paper towels.” left out, “Briefly, 100 μl of 50 mM sodium acetate buffer, pH 5.0, containing 1% Triton X-100 and 6 mg/ml p-nitrophenyl phosphate was added per well and incubated for 1 h at 37° C. The reaction was stopped with 50 μl of 1 M NaOH.” left out, “Alternatively, the attached cells were stained with Crystal Violet essentially as described (Mould et al., 1995).” left out

αMβ2 integrin (Mac-1) = target: T3, αMβ2 integrin (Mac-1) (Homo sapiens, UniProt P11215); test: Phage display biopanning on purified integrin; format: binding; details: phage bound to αMβ2 integrin, CX7C and CX9C libraries, randomly selected clones
T3 construct: from tissue; host or cells: blood buffy coats (leukocytes)
Experimental: The αMβ2 integrin was purified by antibody affinity chromatography from buffy coats obtained from Finnish Red Cross Blood Transfusion Service as described previously (Li et al., 1995). Integrin diluted in Tris-buffered saline (TBS)/1 mM MnCl2 was coated onto microtiter wells overnight at 4° C. using one μg per well in the first biopanning and 100, 10 and 1 ng in subsequent pannings. The wells were blocked with 5% BSA in TBS for 1 h at 22° C. and then washed five times with TBS. Biopanning was performed using CX7C and CX9C phage peptide libraries essentially as described (Koivunen et al., 1994). The construction of libraries was modified so that the single-stranded DNA encoding degenerate sequences was converted into a double-stranded form using 5 cycles of PCR with only the reverse primer and then 11 cycles with both the reverse and forward primer. A total of 6 μg of the double-stranded oligonucleotide was purified using QIAGEN PCR purification kit and ligated with 42 μg of the Fuse5 phage vector. The number of recombinants in the libraries was more than 10^9. Phage binding, elution and subsequent amplification in E. coli were repeated five times, and after each panning bacterial colonies were picked up and stored in a 10 μl volume of TBS in microtiter wells at −20° C. For direct colony sequencing, one μl aliquots of the thawed samples were subjected to PCR with 10 pmol each of the forward primer 5′ […] 3′ (SEQ ID NO: 9) and the reverse primer 5′ […] 3′ (SEQ ID NO: 10). The PCR conditions were 92° C. for 30 s, 60° C. for 30 s, and 72° C. for 60 s, and the cycle number was 35. One μl aliquot of the PCR reaction was taken for sequencing using 15 pmol of either one of the primers and analyzed on an ABI 310 apparatus (PE Applied Biosystems, Foster City, Calif.).
After the fifh round of selection, the CX7C library gave a 600-fold enrichment and CX9C a 1000-fold enrichment of phage bound to the integrin in comparison to background. […] Four of them contained the LLG tripeptide motif. The two sequences most strongly enriched were CPCFLLGCC (SEQ ID NO: 3) (LLG-C4) and […] (SEQ ID NO: 11), each observed 15 times in the randomly selected clones, and these were the only clones remaining after searching for high affinity binders by using low integrin coating concentrations.

[4] = system: L929, K562, SKOV-3, KS6717 and Eahy96 cells; test: Adhesion of non-leukocytic cell lines to immobilized peptide or fusion protein; format: cell-based; details: cells pretreated with phorbol ester or not; data not shown
Experimental: as §2, with “Unbound cells were removed by gently washing with PBS and pressing the plate against paper towels.” left out, “Briefly, 100 μl of 50 mM sodium acetate buffer, pH 5.0, containing 1% Triton X-100 and 6 mg/ml p-nitrophenyl phosphate was added per well and incubated for 1 h at 37° C. The reaction was stopped with 50 μl of 1 M NaOH.” left out, “Alternatively, the attached cells were stained with Crystal Violet essentially as described (Mould et al., 1995).” left out

THP-1 cells = test: Transwell cell migration assay, LLG-C4-GST-coated filters; format: cell-based; details: 10% serum, 18 h
Experimental: The in vitro migration of THP-1 cells was studied in closely physiological conditions containing 10% serum to not interfere with adhesive properties of cells. Both the upper and lower surfaces of 8 μm pore size Transwell filters were coated with fibrinogen, LLG-C4-GST, or GST at a concentration of 40 μg/ml overnight at 4° C. Free binding sites were blocked by incubation with 5% BSA/TBS. THP-1 cells (5×10^4 in 100 μl) were plated on the upper compartment in 10% FCS-containing medium. The C(1–8;3–9) or C(1–9;3–8) peptide were included at a concentration of 200 μM. The lower compartment was filled with 750 μl of 10% FCS-containing medium. Following a culture for 18 h at 37° C. the filters were immersed in methanol for 15 min, in water for 10 s, and in 0.1% toluidine blue for 5 min. The filters were then washed 3–5 times with water until cell staining was clear. Cells were removed from the upper surface of the filter with a cotton swap, and cells migrated on the lower surface were counted microscopically. Student's t-test was used for statistical analysis.

O=C(O)CN(CCN(CC(=O)O)CC(=O)O)CC(=O)O [EDTA, reference compound]
inhibition of LLG-C4-GST binding to immunocaptured αMβ2 integrin (αMβ2 integrin; EDTA present): inhibited the binding of LLG-C4-GST to the integrin
inhibition of LLG-C4-GST binding to the I-domain (αM subunit I-domain): blocked the binding
effect of EDTA on THP-1 binding on LLG-C4-GST ([1]; EDTA 2.5 mM): completely abolished the binding
inhibition of binding of αXβ2-transfected L cells to LLG-C4-GST ([2]; competitor): inhibited

CAAGC (Synthetic peptide seen in Fig. 3B) [reference compound]
competition of THP-1 cell adhesion on LLG-C4-GST substratum [1]: weak competitor of cell adhesion
inhibition of THP-1 binding to von Willebrand factor at 500 μM [3]: not

CLLGC (Synthetic peptide seen in Fig. 3B)
competition of THP-1 cell adhesion on LLG-C4-GST substratum [1]: readily inhibited cell adhesion
inhibition of THP-1 binding to von Willebrand factor at 500 μM [3]: inhibited

CPEDLYFFC (Phage sequence bound to the alphaMbeta2 integrin (Mac-1))
number of isolated nucleotide sequences encoding each peptide (αMβ2 integrin (Mac-1)): (3)

CPPDLFWYC (Phage sequence bound to the alphaMbeta2 integrin (Mac-1))
number of isolated nucleotide sequences encoding each peptide (αMβ2 integrin (Mac-1)): (4)

CWHKDLLGC (Phage sequence bound to the alphaMbeta2 integrin (Mac-1))
number of isolated nucleotide sequences encoding each peptide (αMβ2 integrin (Mac-1)): (4)

CWKLLGSEEEC (Stronly enriched sequence)
number of isolated nucleotide sequences encoding each peptide (αMβ2 integrin (Mac-1)): (15)
number of isolated nucleotide sequences encoding each peptide (αMβ2 integrin (Mac-1); listed as CWKLGSEEEC): 15

GST: control GST protein
binding of GST protein to immunocaptured αMβ2 integrin (αMβ2 integrin): not GST alone
binding to isolated I-domain of the αM subunit (αM subunit I-domain): did not bind

LLG-C4 (1): air-oxidised synthetic biscyclic LLG-C4 preparation, highly active (CPCFLLGCC; disulfide (positions not given here))
inhibition of LLG-C4-GST binding to the I-domain (αM subunit I-domain): blocked the ability of the I-domain to bind the LLG-C4-GST

LLG-C4 (2): synthetic LLG-C4 preparation, inactive apparently due to disadvantageous disulfide bonding (CPCFLLGCC; disulfide (positions not given here); not fully specified)
inhibition of LLG-C4-GST binding to the I-domain (αM subunit I-domain): did not inhibit LLG-C4-GST binding to the I-domain

LLG-C4-GST: LLG-C4 nonapeptide expressed as GST fusion protein in E. coli (CPCFLLGCC-{GST}; cysteine pairing not given here)
binding of GST protein to immunocaptured αMβ2 integrin (αMβ2 integrin): bound to the αMβ2 integrin in a divalent cation-sensitive manner
binding to isolated I-domain of the αM subunit (αM subunit I-domain): concentration-dependent binding
binding of phorbol ester-activated THP-1 cells to coated protein ([1]; protein coated on microtiter wells, 60 min): efficiently bound
binding of non-leukocytic cell lines not expressing β2 integrins [4]: showed no binding
difference in binding of αXβ2-transfected L cells to LLG-C4-GST vs. GST ([2]; p=0.016): statistically significant
cell migration on LLG-C4-GST compared with other coatings (THP-1 cells): more efficient than on fibronectin or fibrinogen coatings
fold more cells migrated on LLG-C4-GST substratum than on control GST substratum (THP-1 cells; filter coated at 40 μg/ml): Approximately 10 fold
